Measurements published in patent publication US7205382B2, “Peptides, the production and use thereof for binding immunoglobulins” (Fresenius Medical Care Affina GmbH, priority 2000, dated 2007).
Bridge positions count the residues as written; N and C are the ends. Square brackets hold non-standard residues; d marks the D form. Ends that are not written are not given here. cellulose = not defined here; βAla = NCCC(=O)O

Key:
Format in all cases: binding
Set-up in all cases: key: No binding of immunoglobulin for the defined peptide variant, detection negative: 0; Binding of immunoglobulin for the defined peptide variant, detection positive: +
serum albumin = assay: Cellulose-immobilized 13-mer peptide variants incubated with serum albumin (negative control), anti-human IgG-AP detection; settings: blocking buffer without addition, 3 h room temperature
Summary of the method: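 Peptides on cellulose via a (βA)(βA) spacer were blocked in T-TBS (pH 8.0) with 5% saccharose and 4% BSA, then exposed for 3 h at room temperature to IgG-Fc (1 μg/ml), serum diluted 1:10,000, or blocking buffer alone. Bound IgG was detected with AP-anti-human IgG (1.2 μg/ml) and NBT/BCIP colour development.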

[1] = system: immunoglobulins in human plasma; assay: Cellulose-immobilized 13-mer peptide variants incubated with human plasma, anti-human IgG-AP detection; settings: human plasma as sample, diluted 1:10,000 in blocking buffer, 3 h room temperature
Summary of the method: (§1)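 Spot membrane, (βA)(βA) spacer; T-TBS pH 8.0 wash, block 5% saccharose/4% BSA. 3 h RT with IgG-Fc 1 μg/ml, serum 1:10,000, or block buffer only (specificity control). 3× wash, AP-anti-human IgG 1.2 μg/ml, NBT/BCIP in pH 9.5 buffer.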

human IgG-Fc = assay: Cellulose-immobilized 13-mer peptide variants incubated with human IgG-Fc, anti-human IgG-AP detection; settings: IgG-Fc 1 μg/ml in blocking buffer, 3 h room temperature
Summary of the method: as §1

Row | Result for incubation with serum albumin (immunoglobulin binding detection) (serum albumin) | Result for incubation with human plasma (immunoglobulin binding detection) [1] | Result for incubation with human IgG-Fc (immunoglobulin binding detection) (human IgG-Fc) | Substance
1 | 0 | 0 | 0 | 02A: cellulose-bound 13-mer variant DAAWHLGELVWCT-(βA)(βA) (DAAWHLGELVWCT[βAla][βAla]; not fully specified; printed as DAAWHLGELVWCT-(βA)(βA); also: cellulose-bound)
2 | 0 | 0 | 0 | 03M: cellulose-bound 13-mer variant DCMWHLGELVWCT-(βA)(βA) (DCMWHLGELVWCT-{βAla-βAla-cellulose}; disulfide 2-12 (inferred); reading uncertain; also: printed as DCMWHLGELVWCT-(βA)(βA))
3 | 0 | 0 | 0 | 02M: cellulose-bound 13-mer variant DMAWHLGELVWCT-(βA)(βA) (DMAWHLGELVWCT[βAla][βAla]; not fully specified; printed as DMAWHLGELVWCT-(βA)(βA); also: cellulose-bound)
4 | 0 | + | + | 04H: cellulose-bound 13-mer variant DCAHHLGELVWCT-(βA)(βA) (DCAHHLGELVWCT[βAla][βAla]; disulfide 2-12 (inferred); also: cellulose-bound)
5 | 0 | 0 | 0 | 12K: cellulose-bound 13-mer variant DCAWHLGELVWKT-(βA)(βA) (DCAWHLGELVWKT-{βAla-βAla-cellulose}; not fully specified; printed as DCAWHLGELVWKT-(βA)(βA); reading uncertain)
6 | 0 | + | + | 03T: cellulose-bound 13-mer variant DCTWHLGELVWCT-(βA)(βA) (DCTWHLGELVWCT-{βAla-βAla-cellulose}; disulfide 2-12 (inferred); reading uncertain; also: printed as DCTWHLGELVWCT-(βA)(βA))
7 | 0 | + | + | 08M: cellulose-bound 13-mer variant DCAWHLGMLVWCT-(βA)(βA) (DCAWHLGMLVWCT-{βAla-βAla-cellulose}; disulfide 2-12 (inferred); not fully specified (N-terminus); printed as DCAWHLGMLVWCT-(βA)(βA); reading uncertain)
8 | 0 | 0 | 0 | 07Y: cellulose-bound 13-mer variant DCAWHLYELVWCT-(βA)(βA) (DCAWHLYELVWCT-{βAla-βAla-cellulose}; disulfide 2-12 (inferred); not fully specified (N-terminus); printed as DCAWHLYELVWCT-(βA)(βA); reading uncertain)
9 | 0 | + | + | 09R: cellulose-bound 13-mer variant DCAWHLGERVWCT-(βA)(βA) (DCAWHLGERVWCT-{βAla-βAla-cellulose}; disulfide 2-12 (inferred); reading uncertain; also: printed as DCAWHLGERVWCT-(βA)(βA))
10 | 0 | 0 | 0 | 10D: cellulose-bound 13-mer variant DCAWHLGELDWCT-(βA)(βA) (DCAWHLGELDWCT-{βAla-βAla-cellulose}; disulfide 2-12 (inferred); reading uncertain; also: printed as DCAWHLGELDWCT-(βA)(βA))
11 | 0 | 0 | 0 | 08C: cellulose-bound 13-mer variant DCAWHLGCLVWCT-(βA)(βA) (DCAWHLGCLVWCT-{βAla-βAla-cellulose}; not fully specified (N-terminus); printed as DCAWHLGCLVWCT-(βA)(βA); cysteine pairing not given here; reading uncertain)
12 | 0 | 0 | 0 | 11Y: cellulose-bound 13-mer variant DCAWHLGELVYCT-(βA)(βA)
13 | 0 | 0 | + | 01H: cellulose-bound 13-mer variant HCAWHLGELVWCT-(βA)(βA) (HCAWHLGELVWCT-{βAla-βAla-cellulose}; disulfide 2-12 (inferred); reading uncertain; also: printed as HCAWHLGELVWCT-(βA)(βA))
14 | 0 | + | + | 03S: cellulose-bound 13-mer variant DCSWHLGELVWCT-(βA)(βA) (DCSWHLGELVWCT-{βAla-βAla-cellulose}; disulfide 2-12 (inferred); reading uncertain; also: printed as DCSWHLGELVWCT-(βA)(βA))
15 | 0 | 0 | 0 | 12G: cellulose-bound 13-mer variant DCAWHLGELVWGT-(βA)(βA) (DCAWHLGELVWGT-{βAla-βAla-cellulose}; not fully specified; printed as DCAWHLGELVWGT-(βA)(βA); reading uncertain)
16 | 0 | 0 | 0 | 10S: cellulose-bound 13-mer variant DCAWHLGELSWCT-(βA)(βA) (DCAWHLGELSWCT-{βAla-βAla-cellulose}; disulfide 2-12 (inferred); reading uncertain; also: printed as DCAWHLGELSWCT-(βA)(βA))
17 | 0 | 0 | + | 09M: cellulose-bound 13-mer variant DCAWHLGEMVWCT-(βA)(βA) (DCAWHLGEMVWCT-{βAla-βAla-cellulose}; disulfide 2-12 (inferred); reading uncertain; also: printed as DCAWHLGEMVWCT-(βA)(βA))
18 | 0 | 0 | 0 | 11T: cellulose-bound 13-mer variant DCAWHLGELVTCT-(βA)(βA)
19 | 0 | 0 | 0 | 04P: cellulose-bound 13-mer variant DCAPHLGELVWCT-(βA)(βA) (disulfide 2-12 (inferred); not fully specified (N-terminus, C-terminus); printed as DCAPHLGELVWCT-(βA)(βA); also: cellulose-bound)
20 | 0 | 0 | 0 | 04A: cellulose-bound 13-mer variant DCAAHLGELVWCT-(βA)(βA) (DCAAHLGELVWCT-{βAla-βAla-cellulose}; disulfide 2-12 (inferred); reading uncertain; also: printed as DCAAHLGELVWCT-(βA)(βA))
21 | 0 | + | + | 07D: cellulose-bound 13-mer variant DCAWHLDELVWCT-(βA)(βA) (DCAWHLDELVWCT-{βAla-βAla-cellulose}; disulfide 2-12 (inferred); not fully specified (N-terminus); printed as DCAWHLDELVWCT-(βA)(βA); reading uncertain)
22 | 0 | 0 | 0 | 07T: cellulose-bound 13-mer variant DCAWHLTELVWCT-(βA)(βA) (DCAWHLTELVWCT-{βAla-βAla-cellulose}; disulfide 2-12 (inferred); not fully specified (N-terminus); printed as DCAWHLTELVWCT-(βA)(βA); reading uncertain)
